ChEMBL document CHEMBL5380866, “Discovery of Selective P2Y6R Antagonists with High Affinity and In Vivo Efficacy for Inflammatory Disease Therapy” (J Med Chem, 2023)
Each block holds one compound with its values, some of them ahead of it. Activity calls are given as the source filed them. No cut-off for these calls is given here.

Experiments:
[1] = target: T1, P2Y purinoceptor 6 (Homo sapiens, UniProt Q15077); experiment: Antagonist activity at human P2Y6R expressed in HEK293 cells assessed as inhibition of UDP-induced IP3 production preincubated for 0.5 hrs followed by UDP stimulation and measured after 12 hrs by ELISA analysis; type: functional, cell-based
[2] = target: T2, P2Y purinoceptor 14 (Homo sapiens, UniProt Q15391); experiment: Antagonist activity at human P2Y14R expressed in HEK293 cells assessed as inhibition of UDPG-induced cAMP production preincubated for 0.5 hrs followed by UDPG stimulation by cAMP-glo analysis; type: functional, cell-based
T2 sequence (Q15391 whole entry): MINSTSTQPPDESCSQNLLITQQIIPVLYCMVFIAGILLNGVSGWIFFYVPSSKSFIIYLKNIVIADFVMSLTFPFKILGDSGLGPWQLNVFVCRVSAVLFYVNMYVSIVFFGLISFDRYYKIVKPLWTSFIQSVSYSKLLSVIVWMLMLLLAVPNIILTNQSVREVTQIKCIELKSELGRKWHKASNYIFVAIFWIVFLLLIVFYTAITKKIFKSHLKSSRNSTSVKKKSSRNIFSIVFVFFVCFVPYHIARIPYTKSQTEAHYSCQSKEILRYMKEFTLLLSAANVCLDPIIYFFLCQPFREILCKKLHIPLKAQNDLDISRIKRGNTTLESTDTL

[3] = tested on: Mus musculus; experiment: Anti-inflammatory activity against DSS-induced acute ulcerative colitis intrarectal dosed C57BL/6J mouse model assessed as […] claudin-1 expression at high dose measured after 8 hrs by Western blot analysis; type: functional, organism-based; conditions: route rec
[4] = tested on: Mus musculus; experiment: Anti-inflammatory activity against LPS-induced acute lung injury C57BL/6J mouse model assessed as reversal of increase in TLR4 expression level 1 to 5 mg/kg, IT(Intratracheal) pretreated with LPS followed by compound addition and measured after 12 hrs by Western blot analysis; type: functional, organism-based; conditions: dose 1-5 mg/kg
[5] = target: T1, P2Y purinoceptor 6; experiment: Binding affinity to human recombinant P2Y6R assessed as dissociation constant by grating-coupled interferometry analysis
[6] = tested on: Mus musculus; experiment: Anti-inflammatory activity against LPS-induced acute lung injury C57BL/6J mouse model assessed as reversal of increase in MyD88 expression level 1 to 5 mg/kg, IT(Intratracheal) pretreated with LPS followed by compound addition and measured after 12 hrs by Western blot analysis; type: functional, organism-based; conditions: dose 1-5 mg/kg
[7] = tested on: Mus musculus; experiment: (§1) Anti-inflammatory activity against LPS-induced acute lung injury C57BL/6J mouse model assessed as restoration of lung structure at 1 to 5 mg/kg, IT(Intratracheal) pretreated with LPS followed by compound addition and measured after 12 hrs by H and E staining based microscopic analysis; type: functional, organism-based; conditions: dose 1-5 mg/kg
[8] = tested on: Mus musculus; experiment: Inhibition of NLRP3 inflammasome activation in DSS-induced acute ulcerative colitis intrarectal dosed C57BL/6J mouse model assessed as decrease in colon caspase-1 expression measured after 8 hrs by Western blot analysis; type: functional, organism-based; conditions: route rec
[9] = tested on: Mus musculus; experiment: Anti-inflammatory activity against DSS-induced acute ulcerative colitis intrarectal dosed C57BL/6J mouse model assessed as reduction in inflammatory infiltration administered daily from 1 to 7 days by H and E staining based microscopic analysis; type: functional, organism-based; conditions: route rec, time 1-7 day
[10] = AUC (0 to t) in Sprague-Dawley rat at 20 mg/kg, po measured at 10 to 720 mins by LC-MS/MS analysis; type: ADME, organism-based; parameters: time upper 720 min, time lower 10 min, dose 20 mg/kg, route po; conditions: in vivo
[11] = tested on: Mus musculus; experiment: Anti-inflammatory activity against DSS-induced acute ulcerative colitis intrarectal dosed C57BL/6J mouse model assessed as decrease in goblet cells administered daily from 1 to 7 days by H and E staining based microscopic analysis; type: functional, organism-based; conditions: route rec, time 1-7 day
[12] = tested on: Mus musculus; experiment: Anti-inflammatory activity against DSS-induced acute ulcerative colitis intrarectal dosed C57BL/6J mouse model assessed as […] length administered daily from 1 to 7 days; type: functional, organism-based; conditions: route rec, time 1-7 day
[13] = tested on: Mus musculus; experiment: Inhibition of NLRP3 inflammasome activation in DSS-induced acute ulcerative colitis intrarectal dosed C57BL/6J mouse model assessed as decrease in colon ASC expression measured after 8 hrs by Western blot analysis; type: functional, organism-based; conditions: route rec
[14] = tested on: Mus musculus; experiment: Anti-inflammatory activity against LPS-induced acute lung injury C57BL/6J mouse model assessed as decrease in TNF-alpha secretion in BALF 1 to 5 mg/kg, IT(Intratracheal) pretreated with LPS followed by compound addition and measured after 12 hrs ELISA analysis; type: functional, organism-based; conditions: dose 1-5 mg/kg
[15] = Oral bioavailability in Sprague-Dawley rat at 20 mg/kg measured at 10 to 720 mins by LC-MS/MS analysis; type: ADME, organism-based; conditions: in vivo, time 10-720 min
[16] = AUC (0 to t) in Sprague-Dawley rat at 2 mg/kg, iv measured at 3 to 480 mins by LC-MS/MS analysis; type: ADME, organism-based; parameters: dose 2 mg/kg, time 3-480 min, route iv; conditions: in vivo
[17] = Volume of distribution in Sprague-Dawley rat at 2 mg/kg, iv measured at 3 to 480 mins by LC-MS/MS analysis; type: ADME, organism-based; conditions: in vivo, time 3-480 min
[18] = tested on: Mus musculus; experiment: Anti-inflammatory activity against DSS-induced acute ulcerative colitis intrarectal dosed C57BL/6J mouse model assessed as […] Occludin expression at high dose measured after 8 hrs by Western blot analysis; type: functional, organism-based; conditions: route rec
[19] = tested on: Mus musculus; experiment: Anti-inflammatory activity against DSS-induced acute ulcerative colitis intrarectal dosed C57BL/6J mouse model assessed as decrease in spleen index administered daily from 1 to 7 days; type: functional, organism-based; conditions: route rec, time 1-7 day
[20] = Tmax in Sprague-Dawley rat at 20 mg/kg, po measured at 10 to 720 mins by LC-MS/MS analysis; type: ADME, organism-based; conditions: in vivo, time 10-720 min
[21] = Cmax in Sprague-Dawley rat at 20 mg/kg, po measured at 10 to 720 mins by LC-MS/MS analysis; type: ADME, organism-based; parameters: time upper 720 min, dose 20 mg/kg, time lower 10 min, route po; conditions: in vivo
[22] = tested on: Mus musculus; experiment: Anti-inflammatory activity against LPS-induced acute lung injury C57BL/6J mouse model assessed as reversal of increase in p-38 phosphorylation level 1 to 5 mg/kg, IT(Intratracheal) pretreated with LPS followed by compound addition and measured after 12 hrs by Western blot analysis; type: functional, organism-based; conditions: dose 1-5 mg/kg
[23] = tested on: Mus musculus; experiment: Anti-inflammatory activity against LPS-induced acute lung injury C57BL/6J mouse model assessed as decrease in IL-1beta secretion in BALF 1 to 5 mg/kg, IT(Intratracheal) pretreated with LPS followed by compound addition and measured after 12 hrs ELISA analysis; type: functional, organism-based; conditions: dose 1-5 mg/kg
[24] = tested on: Mus musculus; experiment: Inhibition of NLRP3 inflammasome activation in DSS-induced acute ulcerative colitis intrarectal dosed C57BL/6J mouse model assessed as decrease in colon NLRP3 expression measured after 8 hrs by Western blot analysis; type: functional, organism-based; conditions: route rec
[25] = Half life in Sprague-Dawley rat at 2 mg/kg, iv measured at 3 to 480 mins by LC-MS/MS analysis; type: ADME, organism-based; conditions: in vivo, time 3-480 min
[26] = tested on: A549; experiment: Cytotoxicity against human A549 cells assessed as inhibition of cell growth at below 10 uM incubated for 12 hrs by CCK-8 assay; type: functional, cell-based
[27] = tested on: Mus musculus; experiment: Anti-inflammatory activity against LPS-induced acute lung injury C57BL/6J mouse model assessed as reduction in inflammatory infiltration in BALF administered IT(Intratracheal) pretreated with LPS followed by compound addition and measured after 12 hrs; type: functional, organism-based; conditions: dose 1-5 mg/kg
[28] = tested on: Mus musculus; experiment: Anti-inflammatory activity against LPS-induced acute lung injury C57BL/6J mouse model assessed as reversal of increase in ERK-phosphorylation level 1 to 5 mg/kg, IT(Intratracheal) pretreated with LPS followed by compound addition and measured after 12 hrs by Western blot analysis; type: functional, organism-based; conditions: dose 1-5 mg/kg
[29] = tested on: Mus musculus; experiment: Anti-inflammatory activity against LPS-induced acute lung injury C57BL/6J mouse model assessed as decrease in lung IL-1beta mRNA expression level 1 to 5 mg/kg, IT(Intratracheal) pretreated with LPS followed by compound addition and measured after 12 hrs RT-PCR analysis; type: functional, organism-based; conditions: dose 1-5 mg/kg
[30] = Clearance in Sprague-Dawley rat at 2 mg/kg, iv measured at 3 to 480 mins by LC-MS/MS analysis; type: ADME, organism-based; conditions: in vivo, time 3-480 min
[31] = tested on: HT-29; experiment: Cytotoxicity against human HT-29 cells assessed as inhibition of cell growth at below 10 uM incubated for 12 to 24 hrs by CCK-8 assay; type: functional, cell-based; conditions: time 12-24 hrs
[32] = tested on: Mus musculus; experiment: Anti-inflammatory activity against DSS-induced acute ulcerative colitis intrarectal dosed C57BL/6J mouse model assessed as […] ZO-1 expression at high dose measured after 8 hrs by Western blot analysis; type: functional, organism-based; conditions: route rec
[33] = tested on: Mus musculus; experiment: Anti-inflammatory activity against DSS-induced acute ulcerative colitis intrarectal dosed C57BL/6J mouse model assessed as decrease in crypt necrosis administered daily from 1 to 7 days by H and E staining based microscopic analysis; type: functional, organism-based; conditions: route rec, time 1-7 day
[34] = Half life in Sprague-Dawley rat at 20 mg/kg, po measured at 10 to 720 mins by LC-MS/MS analysis; type: ADME, organism-based; conditions: in vivo, time 10-720 min
[35] = Cmax in Sprague-Dawley rat at 2 mg/kg, iv measured at 3 to 480 mins by LC-MS/MS analysis; type: ADME, organism-based; parameters: time upper 480 min, time lower 3 min, dose 2 mg/kg, route iv; conditions: in vivo
[36] = tested on: Mus musculus; experiment: as §1, with “reduction in inflammatory infiltration in” for “restoration of”, “lung” for “lung structure”; type: functional, organism-based; conditions: dose 1-5 mg/kg
[37] = tested on: Mus musculus; experiment: Anti-inflammatory activity against DSS-induced acute ulcerative colitis intrarectal dosed C57BL/6J mouse model assessed as decrease in mucosal damage administered daily from 1 to 7 days by H and E staining based microscopic analysis; type: functional, organism-based; conditions: route rec, time 1-7 day
[38] = tested on: Mus musculus; experiment: Anti-inflammatory activity against LPS-induced acute lung injury C57BL/6J mouse model assessed as decrease in lung TNF-alpha mRNA expression level 1 to 5 mg/kg, IT(Intratracheal) pretreated with LPS followed by compound addition and measured after 12 hrs RT-PCR analysis; type: functional, organism-based; conditions: dose 1-5 mg/kg
[39] = tested on: Mus musculus; experiment: Anti-inflammatory activity against LPS-induced acute lung injury C57BL/6J mouse model assessed as reduction in pulmonary edema administered IT(Intratracheal) pretreated with LPS followed by compound addition and measured after 12 hrs; type: functional, organism-based; conditions: dose 1-5 mg/kg
[40] = MRT in Sprague-Dawley rat at 2 mg/kg, iv measured at 3 to 480 mins by LC-MS/MS analysis; type: ADME, organism-based; conditions: in vivo, time 3-480 min

T1 sequence (Q15077 whole entry): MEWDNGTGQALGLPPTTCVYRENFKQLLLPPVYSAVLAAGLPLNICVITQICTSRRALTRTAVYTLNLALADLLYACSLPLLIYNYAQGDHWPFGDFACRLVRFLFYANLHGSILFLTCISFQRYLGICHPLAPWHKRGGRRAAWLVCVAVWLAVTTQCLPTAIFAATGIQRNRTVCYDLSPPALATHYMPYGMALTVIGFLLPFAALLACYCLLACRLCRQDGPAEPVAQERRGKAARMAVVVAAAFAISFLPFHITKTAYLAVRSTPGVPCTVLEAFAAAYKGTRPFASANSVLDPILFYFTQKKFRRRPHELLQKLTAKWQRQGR

SMILES: CC(C)(C)n1nc(-c2nc3ccccc3[nH]2)cc1-c1ccco1
IC50 [1]: 0.159 µM

SMILES: O=C(O)c1cc(-c2ccccc2C2CCNCC2)c2ccc(-c3ccc(C(F)(F)F)cc3)cc2c1
IC50 [2]: 5.21 µM

SMILES: CC(C)(C)n1nc(-c2nc3ccccc3s2)cc1-c1ccccc1
IC50 [1]: 0.314 µM

SMILES: CC(C)(C)n1nc(-c2nc3cc(Cl)ccc3[nH]2)cc1-c1ccco1
Activity [3]: Active | Activity [4]: Active | Kd [5]: 3.47 µM | Activity [6]: Active | Activity [7]: Active | inhibition [8]: Active | Activity [9]: Active | AUC(0-t) [10]: 415 ng·h/mL | Activity [11]: Active | Activity [12]: Dose-Dependent Effect | inhibition [13]: Active | Activity [14]: Active | bioavailability [15]: 15.9% | AUC(0-t) [16]: 261 ng·h/mL | IC50 [1]: 0.00591 µM | Vd [17]: 20.1 L/kg | Activity [18]: Active | Activity [19]: Dose-Dependent Effect | Tmax [20]: 2 h | Cmax [21]: 53.7 ng/mL | Activity [22]: Active | Activity [23]: Active | inhibition [24]: Active | half-life [25]: 1.81 h | inhibition [26]: inactive | Activity [27]: Dose-Dependent Effect | Activity [28]: Active | Activity [29]: Active | clearance [30]: 130 mL/min/kg | inhibition [31]: inactive | Activity [32]: Active | Activity [33]: Active | half-life [34]: 6.46 h | Cmax [35]: 1050 ng/mL | Activity [36]: Active | Activity [37]: Active | Activity [38]: Active | Activity [39]: Dose-Dependent Effect | MRT [40]: 0.575 h

SMILES: Cc1ccc2oc(-c3cc(-c4ccco4)n(C(C)(C)C)n3)nc2c1
IC50 [1]: 0.202 µM

SMILES: CC(C)(C)n1nc(-c2nc3cc(OC(F)(F)F)ccc3[nH]2)cc1-c1ccco1
IC50 [1]: 0.128 µM

SMILES: CC(C)n1nc(-c2nc3ccccc3s2)cc1-c1ccccc1
IC50 [1]: 0.0878 µM

SMILES: Cc1ccc2[nH]c(-c3cc(-c4ccccc4)n(C(C)(C)C)n3)nc2c1
IC50 [1]: 0.0778 µM

SMILES: Cc1ccc2nc(-c3cc(-c4ccco4)n(C(C)(C)C)n3)oc2c1
IC50 [1]: 0.0729 µM

The remaining lines, values ahead:

IC50 [1]: 0.0425 µM
SMILES: Cc1ccc2nc(-c3cc(-c4ccccc4)n(C(C)(C)C)n3)oc2c1

IC50 [1]: 0.0275 µM
SMILES: S=C=Nc1cccc(NC(=S)NCCCCNC(=S)Nc2cccc(N=C=S)c2)c1

IC50 [1]: 0.0641 µM
SMILES: CC(C)(C)n1nc(-c2nc3cc(F)ccc3[nH]2)cc1-c1ccco1

IC50 [1]: 0.0308 µM
SMILES: CC(C)(C)n1nc(-c2nc3ccccc3o2)cc1-c1ccco1

IC50 [1]: 0.0152 µM
SMILES: CC(C)(C)n1nc(-c2nc3cc(C(F)(F)F)ccc3[nH]2)cc1-c1ccco1
